Results: PubChem BioAssay (NCI)
Several values for one entry are separate records, joined by “and”; a condition that tells them apart may be missing. Identical values can stand only once.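 GI50 is the concentration that inhibits growth by half. Definition used: TGI = concentration required for complete inhibition of growth.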

Assays:
Test in all cases: NCI-60 cell line screen, 384-well format; in the data active = GI50 below about 0.43 µM; inactive = the rest
786-0 renal = system: 786-0 renal
A498 renal = system: A498 renal
A549 NSCLC = system: A549 NSCLC
ACHN renal = system: ACHN renal
BT-549 breast = system: BT-549 breast
CAKI-1 renal = system: CAKI-1 renal
CCRF-CEM leukemia = system: CCRF-CEM leukemia
COLO 205 colon = system: COLO 205 colon
DU-145 prostate = system: DU-145 prostate
EKVX NSCLC = system: EKVX NSCLC
HCC-2998 colon = system: HCC-2998 colon
HCT-116 colon = system: HCT-116 colon
HCT-15 colon = system: HCT-15 colon
HL-60(TB) leukemia = system: HL-60(TB) leukemia
HOP-62 NSCLC = system: HOP-62 NSCLC
HOP-92 NSCLC = system: HOP-92 NSCLC
HS 578T breast = system: HS 578T breast
HT29 colon = system: HT29 colon
IGROV1 ovarian = system: IGROV1 ovarian
K-562 leukemia = system: K-562 leukemia
KM12 colon = system: KM12 colon
LOX IMVI melanoma = system: LOX IMVI melanoma
M14 melanoma = system: M14 melanoma
MALME-3M melanoma = system: MALME-3M melanoma
MCF7 breast = system: MCF7 breast
MDA-MB-231 breast = system: MDA-MB-231 breast
MDA-MB-435 melanoma = system: MDA-MB-435 melanoma
MDA-MB-468 breast = system: MDA-MB-468 breast
MOLT-4 leukemia = system: MOLT-4 leukemia
NCI-H226 lung = system: NCI-H226 lung

CC1Cc2ccccc2N1C(=O)Cc1nc(N2CCOCC2)cc(=O)[nH]1 (centres undefined)
97.1 µM and > 100 µM: TGI (MALME-3M melanoma)
20.4 µM and 41 µM: TGI (MOLT-4 leukemia)
24.7 µM and > 100 µM: TGI (HL-60(TB) leukemia)
34.4 µM and > 100 µM: TGI (KM12 colon)
2.47 µM and 7.74 µM: TGI (A498 renal)
> 100 µM: TGI (786-0 renal) | TGI (A549 NSCLC) | TGI (ACHN renal) | TGI (CAKI-1 renal) | TGI (CCRF-CEM leukemia) | TGI (COLO 205 colon) | TGI (DU-145 prostate) | TGI (HCT-116 colon) | TGI (HCT-15 colon) | TGI (HOP-62 NSCLC) | TGI (HOP-92 NSCLC) | TGI (K-562 leukemia) | TGI (M14 melanoma) | TGI (MCF7 breast) | TGI (MDA-MB-231 breast) | TGI (MDA-MB-435 melanoma)
75.2 µM and > 100 µM: TGI (HCC-2998 colon)
0.286 µM and 1.34 µM: GI50 (A498 renal)
45.6 µM and > 100 µM: TGI (BT-549 breast)
38.9 µM and 98.9 µM: TGI (EKVX NSCLC)
29.7 µM and > 100 µM: TGI (HT29 colon)
17.7 µM and 65.7 µM: TGI (MDA-MB-468 breast)
23.1 µM and 58.3 µM: TGI (HS 578T breast)
inactive: GI50 ([…]-0 renal) 3.31 µM and 17.8 µM | GI50 (A549 NSCLC) 16.2 µM and 32.4 µM | GI50 (ACHN renal) 5.56 µM and 17.4 µM | GI50 (BT-549 breast) 2.46 µM and 11.6 µM | GI50 (CAKI-1 renal) 4.84 µM and 12.7 µM | GI50 (CCRF-CEM leukemia) 23.1 µM and 61.7 µM | GI50 (COLO 205 colon) 53.8 µM and > 100 µM | GI50 (DU-145 prostate) 14.2 µM and 34.2 µM | GI50 (EKVX NSCLC) 5.5 µM and 15.9 µM | GI50 (HCC-2998 colon) 4.86 µM and 33 µM | GI50 (HCT-116 colon) 16.3 µM and 52.1 µM | GI50 (HCT-15 colon) 24.1 µM and 37.9 µM | GI50 (HL-60(TB) leukemia) 3.35 µM and 10.3 µM | GI50 (HOP-62 NSCLC) 20.6 µM and 33.5 µM | GI50 (HOP-92 NSCLC) 8.04 µM and 25.3 µM | GI50 (HS 578T breast) 3.8 µM and 13.4 µM | GI50 (HT29 colon) 9.87 µM and 49.4 µM | GI50 (IGROV1 ovarian) 1.72 µM and 7.93 µM | GI50 (K-562 leukemia) 37.8 µM and 78.3 µM | GI50 (KM12 colon) 13.5 µM and 72 µM | GI50 (LOX IMVI melanoma) 14.5 µM and 50.9 µM | GI50 (M14 melanoma) > 100 µM and 71 µM | GI50 (MALME-3M melanoma) 14.3 µM and 23.3 µM | GI50 (MCF7 breast) 3.23 µM and 14.9 µM | GI50 (MDA-MB-231 breast) 22.5 µM and 51.2 µM | GI50 (MDA-MB-435 melanoma) > 100 µM and 85.3 µM | GI50 (MDA-MB-468 breast) 3.31 µM and 15.1 µM | GI50 (MOLT-4 leukemia) 4.69 µM and 15 µM | GI50 (NCI-H226 lung) 63.2 µM and 65.3 µM
7.96 µM and 32.8 µM: TGI (IGROV1 ovarian)
42.4 µM and > 100 µM: TGI (LOX IMVI melanoma)
